Test results reported in patent US9700543B2, “GLP-1 receptor stabilizers and modulators” (Celgene International II SÀRL, priority 2011, dated 2017).
pEC50: −log10 of the molar value.

Key:
GLP-1R = biological target: T1, GLP-1R (Homo sapiens, UniProt P43220); experiment: EC20 GLP-1(9-36) PAM cAMP assay: dose response of compound in the presence of fixed concentration of GLP-1(9-36); assay type: cell-based; conditions: compound dose response with fixed GLP-1(9-36), GLP-1R CRE-bla CHO-K1 cells; for EC20 GLP-1 (9-36) PAM Activity max cAMP: Emax as total cAMP; for pEC50: cAMP
T1 construct: host or cells: CRE-bla CHO-K1
T1 sequence (P43220 24-463): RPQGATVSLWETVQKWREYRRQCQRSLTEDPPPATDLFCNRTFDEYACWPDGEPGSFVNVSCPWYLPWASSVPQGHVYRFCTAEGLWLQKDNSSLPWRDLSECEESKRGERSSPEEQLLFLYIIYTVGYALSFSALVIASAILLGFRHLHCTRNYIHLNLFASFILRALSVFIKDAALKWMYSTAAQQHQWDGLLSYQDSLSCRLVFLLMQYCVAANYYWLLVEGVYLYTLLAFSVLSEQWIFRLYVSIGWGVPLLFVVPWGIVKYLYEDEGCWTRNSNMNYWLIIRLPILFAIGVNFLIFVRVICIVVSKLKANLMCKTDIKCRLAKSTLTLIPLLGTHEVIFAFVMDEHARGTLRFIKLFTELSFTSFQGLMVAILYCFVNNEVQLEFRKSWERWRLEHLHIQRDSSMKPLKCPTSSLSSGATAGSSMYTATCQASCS
T1 sequence (P01275 100-127 partner limits assumed): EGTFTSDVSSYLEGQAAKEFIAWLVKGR
Experimental: EC20GLP-1(9-36) PAM cAMP Assay: Dose Response of Compound in the Presence of Fixed Concentration of GLP-1 (9-36)
GLP-1R CRE-bla CHO-K1 cells were seeded into 384-well white flat bottom plates at 10,000 cells/well/20 μL growth medium (DMEM-High glucose, 10% dialyzed FBS, 0.1 mM NEAA, 25 mM Hepes, 100 U/mL penicillin/100 μg/mL streptomycin, 5 μg/mL Blasticidin, 600 μg/mL Hygromycin) and incubated for 18 h at 37° C. in 5% CO2. Growth medium was replaced with 12 μL assay buffer (Hanks Balanced Salt solution, 10 mM Hepes, 0.1% BSA, pH7.4). A 5× compound dose response curve (12-point) was generated in assay buffer containing 1.5 mM IBMX, 12.5% DMSO. GLP-1(9-36) was diluted to 4.2 μM in assay buffer containing 1.5 mM IBMX and 12.5% DMSO. The 5× compound dose response was added (3 μL), followed by 0.5 μL of GLP-1(9-36) and cells were incubated for 30 min at 37° C. Direct detection of cAMP was carried out using DiscoveRx HitHunter cAMP kit according to manufacturer's instructions and luminescence was read using a SpectraMax M5 plate reader. Luminescence was converted to total cAMP using a cAMP standard curve and data was analyzed by non-linear regression to determine the EC50 and Emax.

[1] = Determination of absolute oral bioavailability in rats; assay type: in vivo; conditions: rat, plasma; fasted female Sprague-Dawley rats; oral solution 5 mg/kg, intravenous 1 mg/kg
Experimental: Determination of Absolute Oral Bioavailability in Rats
All pharmacokinetic studies were conducted in fasted female Sprague-Dawely rats (Simonsen Laboratories or Harlan Laboratories). Rats were housed in an ALAAC accredited facility and the research was approved by the facilities Institutional Animal Care and Use Committee (IACUC). The animals were acclimated to the laboratory for at least 48 h prior to initiation of experiments.
Compounds were formulated in 20% hydroxy beta cyclodextrin or 20% captisol and 80%-25 mM NaPO4 Buffer (pH 8) (intravenous infusion), or 5% DMSO/5% Tween20 and 90% water (oral gavage or intraperitoneal injection). The concentration of the dosing solutions was verified by HPLC-UV. For intravenous dosing, compounds were administered into the tail vein to manually restrained animals (n=3 rats/compound). The intravenous dose was 1 mg/kg. Oral dosing was by gavage using a standard stainless steel gavage needle (n=2-4 rats/compound). The oral solution dose was 5 mg/kg. For compounds 1 and 3, the oral solution dose was 30 mg/kg. For both routes of administration, blood was collected into BD Microtainer tubes with Dipotassium EDTA as the anticoagulantant eight time-points after dosing with the final sample drawn 24 h post dose Plasma was separated by centrifugation and transferred to a polypropylene 96-well plate and kept at 4° C. until analysis.
Proteins were precipitated by adding 150 μL acetonitrile to 50 μL of plasma. Plates were mixed for 1 min on a plate shaker to facilitate protein precipitation and then centrifuged at 3,000 rpm for 10 min to pellet protein. The supernatant was transferred to a clean plate and centrifuged at 3,000 rpm for 10 min to pellet any remaining solid material prior to LC/MS/MS analysis. Calibration curve standards were prepared by spiking 54 compound stock in DMSO into rat plasma from untreated animals. An eight point standard curve spanning a range of 0.14 nM to 300 nM was included with each bio-analytical run. The standards were processed identically to the rat pharmacokinetic samples.
Concentrations in the rat pharmacokinetic samples were determined using a standardized HPLC-LC/MS/MS method relative to the eight point standard curve. The system consisted of a Leap CTC Pal injector, Agilent 1200 HPLC with binary pump coupled with an Applied Biosystems 4000 QTrap. Compounds were chromatographed on a Phenomenex Luna C8(2) 20×2 mm 2 um Mercury Cartridge with Security Guard. A gradient method was used with mobile phase A consisting of 0.1% formic acid in water and mobile phase B consisting of 0.1% formic acid in acetonitrile at flow rates varying from 0.7 to 0.8 mL/min. Ions were generated in positive ionization mode using an electrospray ionization (ESI) interface. Multiple reaction monitoring (MRM) methods were developed specific to each compound. The heated nebulizer was set at 500° C. with a nebulizer current of 5.1 μA. Collision energies used to generate daughter ions ranged between 29 and 80 V. Peak area obtained from MRM of the mass transitions specific for each compound were used for quantification. The limit of quantification of the method was typically 1.2 nM. Data were collected and analyzed using Analyst software version 1.5.1. Blood concentration versus time data were analyzed using non-compartmental methods (WinNonlin Phoenix version 6.2; model 200 for oral or intraperitoneal dosing and model 202 for intravenous infusion). Absolute oral bioavailability (%) was calculated using the following expression: (Oral AUC×IV Dose)/(IV AUC×Oral Dose)×100.

Row | EC20 GLP-1 (9-36) PAM Activity max cAMP (GLP-1R) [µM] | pEC50 (GLP-1R) | bioavailability [1] [%] | SMILES
1 | 0.237 | 5.49 | 3 | COc1ccc(CC(=O)Nc2ccc(C(=O)N(CC(=O)O)Cc3ccc(-c4nc(-c5ccc(C)cc5)no4)cc3)cc2)c(C(F)(F)F)c1 [Compound 363, 2-(4-(2-(4-methoxy-2-(trifluoromethyl)phenyl)acetamido)-N-(4-(3-(p-tolyl)-1,2,4-oxadiazol-5-yl)benzyl)benzamido)acetic acid]
2 | 0.278 | 6.40 | 10 | COc1ccc(CC(=O)Nc2ccc(C(=O)N(CC(=O)O)Cc3ccc(-c4coc(-c5ccc(-c6ccc(C)cc6)cc5)n4)cc3)cc2)c(C(F)(F)F)c1 [Compound 364, 2-(4-(2-(4-methoxy-2-(trifluoromethyl)phenyl)acetamido)-N-(4-(2-(4′-methyl-[1,1′-biphenyl]-4-yl)oxazol-4-yl)benzyl)benzamido)acetic acid]
3 | 0.206 | 6.52 | 8 | COc1ccc(OC)c(CC(=O)Nc2ccc(C(=O)N(CC(=O)O)Cc3ccc(-c4noc(-c5ccc(-c6ccc(C)cc6)cc5)n4)cc3)cc2)c1 [Compound 405, 2-(4-(2-(2,5-dimethoxyphenyl)acetamido)-N-(4-(5-(4′-methyl-[1,1′-biphenyl]-4-yl)-1,2,4-oxadiazol-3-yl)benzyl)benzamido)acetic acid]
4 | 0.258 | 6.70 | 10 | COc1cccc(OC)c1CC(=O)Nc1ccc(C(=O)N(CC(=O)O)Cc2ccc(-c3noc(-c4ccc(-c5ccc(C)cc5)cc4)n3)cc2)cc1 [Compound 411, 2-(4-(2-(2,6-dimethoxyphenyl)acetamido)-N-(4-(5-(4′-methyl-[1,1′-biphenyl]-4-yl)-1,2,4-oxadiazol-3-yl)benzyl)benzamido)acetic acid]
5 | 0.167 | 6.30 | 5 | COc1ccc(F)c(CC(=O)Nc2ccc(C(=O)N(CC(=O)O)Cc3ccc(-c4noc(-c5ccc(-c6ccc(C)cc6)cc5)n4)cc3)cc2)c1F [Compound 441, 2-(4-(2-(2,6-difluoro-3-methoxyphenyl)acetamido)-N-(4-(5-(4′-methyl-[1,1′-biphenyl]-4-yl)-1,2,4-oxadiazol-3-yl)benzyl)benzamido)acetic acid]
6 | 0.266 | 6.70 | 19.4 | COc1ccc(OC)c(CC(=O)Nc2ccc(C(=O)N(CC(=O)O)Cc3ccc(-c4nc(-c5ccc(-c6ccc(C)cc6)cc5)no4)cc3)cc2)c1 [Compound 457, 2-(4-(2-(2,5-dimethoxyphenyl)acetamido)-N-(4-(3-(4′-methyl-[1,1′-biphenyl]-4-yl)-1,2,4-oxadiazol-5-yl)benzyl)benzamido)acetic acid]
7 | 0.302 | 6.70 | 14.8 | COc1cccc(OC)c1CC(=O)Nc1ccc(C(=O)N(CC(=O)O)Cc2ccc(-c3nc(-c4ccc(-c5ccc(C)cc5)cc4)no3)cc2)cc1 [Compound 458, 2-(4-(2-(2,6-dimethoxyphenyl)acetamido)-N-(4-(3-(4′-methyl-[1,1′-biphenyl]-4-yl)-1,2,4-oxadiazol-5-yl)benzyl)benzamido)acetic acid]
8 | 0.31 | 6.30 | 7 | COc1ccc(CC(=O)Nc2ccc(C(=O)N(CC(=O)O)Cc3ccc(-c4noc(-c5ccc(-c6ccc(C)cc6)cc5)n4)cc3)c(F)c2)c(C(F)(F)F)c1 [Compound 496, 2-(2-fluoro-4-(2-(4-methoxy-2-(trifluoromethyl)phenyl)acetamido)-N-(4-(5-(4′-methyl-[1,1′-biphenyl]-4-yl)-1,2,4-oxadiazol-3-yl)benzyl)benzamido)acetic acid]
